# Results from patent US12329738B2, “Urolithin A and a composition containing same for external use in inflammations of various etiologies” (WARSZAWSKI UNIWERSYTET MEDYCZNY, priority 2018, dated 2025).
# Key:
# [1] = test system: TNF-alpha; test: TNF-alpha production by THP-1 derived macrophages (ELISA); format: cell-based, human; settings: 40 μM; LPS stimulation; FIG. 13
# Protocol: (§1) Monocytes of the THP-1 line were cultured in RPMI 1640 medium supplemented with 10% FBS and 2 mM glutamine. For transformation of monocytes into macrophages, the cells were treated with 12.5 ng/mL PMA (phorbol 12-myristate 13-acetate) for 48 hours, then washed and incubated for 24 hours in a culture medium without PMA. After this time, urolithin A, urolithin B, iso-urolithin A and the corresponding glucuronides (GUA, GUB and GiUA) were added to the cells at a concentration of 40 μM. After 1 hour of incubation with the compounds, the cells were stimulated with LPS from Escherichia coli (10 ng/mL).
# (§2) To assess the level of TNF-alpha production, the cells were incubated for 6 hours, to assess the expression of mRNA for TNF-alpha, the cells were incubated for 24 hours, to assess the effect on ERK1/2 phosphorylation, the cells were incubated for 35 minutes.
# (§3) The level of TNF-alpha in the culture medium was determined using the immunochemical ELISA method (BD biosciences). Evaluation of the expression of mRNA for TNF-alpha was performed using real time PCR. After 24 hours of incubation, RNA was isolated using NucleoSpin RNA Clean-up (Macherey-Nagel). The amount and quality of isolated RNA was determined using 2100 Bioanalyzer (Agilent Technologies). The expression level of mRNA for TNF-α was determined using Brilliant II SYBR Green QPCR Kit and Aria Mx Real-Time PCR thermocycler (Agilent Technologies). The following were used as primers for TNF-alpha: forward: 5′-[…]-3′, reverse: 5′-[…]-3′. Beta-actin (ACTB) was used as the housekeeping gene; primer forward: 5′-[…]-3′, reverse: 5′-[…]-3′).
# (§4) The obtained results of experiments on in vitro models were analyzed using the Statistica 13 program (StatSoft, Inc., Tulsa, OK, USA) and presented as mean values±SEM. Statistical significance was set at P≤0.05. The results with established normal distribution in the D'Agostin and Pearson test were prepared using analysis of variance (ANOVA). Parametric post-hoc analysis was performed using Dunnett's test.
# [2] = test system: Wistar rats (DNCB-induced atopic dermatitis); test: Pruritus level (scratch reflexes) in DNCB-induced atopic dermatitis rat model; format: in vivo; settings: topical ointment; urolithin A 0.2 and 1.0% (p<0.001), hydrocortisone 1% (p<0.01)
# Protocol: Wistar rats aged 5-6 weeks (at the start of the experiment) kept under standard conditions with free access to feed and water were used for the tests. The animals were divided into 5 groups, 8 individuals in each group. To prepare 2,4-dinitrochlorobenzene (DNCB) composition inducing inflammation, DNCB was dissolved in 70% ethanol to a final concentration of 1.5% (w/v). Therapeutic composition was an ointment based on white petrolatum with 0.2% or 1.0% urolithin A added. The control ointment was white petrolatum without addition of urolithin A. The induction of chronic atopic dermatitis involved local 9-fold infiltration with 60 μl 1.5% 2,4-dinitrochlorobenzene (DNCB) on each (external and internal) surface of the right ear over 3 weeks (3 times a week). Negative control was the right ear of rats without induction inflammation. Treatment of atopic dermatitis with 0.2% or 1.0% urolithin composition and white petrolatum (control) or 1.0% hydrocortisone composition (positive control) was started eight days after sensitization—one day before the fourth application of DNCB. Ointments with appropriate for given group drug added were applied in a total volume of about 20 μl to each ear surface one day before and 6 hours after each DNCB application (for a period of 3 weeks). The negative control group consisted of rats without induced inflammation and treated with white petrolatum in a regimen analogous to the composition of urolithin A or hydrocortisone. Measurement of pruritus level (as measured by scratching reflexes) was evaluated as the total frequency of scratch reflexes during 10 minutes immediately after DNCB application on days 0, 4, 8, 12, 16, 20, 24, 28 and 32 of the experiment). Scratching was defined as a single or series of several reflexes of scratching with a paw directed at the site of DNCB application. The experimental results obtained were analyzed using the Statistica 7.1 program (StatSoft, Inc., Tulsa, OK, USA) and presented as mean values±SE. Statistical significance was set at P≤0.05. The results with established normal distribution in the D'Agostin and Pearson test were prepared using two- or three-factor analysis of variance (ANOVA). Parametric post-hoc analysis for individual time points was performed using the Bonferroni test.
# [3] = test system: Wistar rats (DNCB-induced atopic dermatitis); test: Peripheral blood morphology in DNCB-induced atopic dermatitis rat model; format: in vivo
# Protocol: Wistar rats aged 5-6 weeks (at the start of the experiment) kept under standard conditions with free access to feed and water were used for the tests. The animals were divided into 5 groups, 8 individuals in each group. To prepare 2,4-dinitrochlorobenzene (DNCB) composition inducing inflammation, DNCB was dissolved in 70% ethanol to a final concentration of 1.5% (w/v). Therapeutic composition was an ointment based on white petrolatum with 0.2% or 1.0% urolithin A added. The control ointment was white petrolatum without addition of urolithin A.
# The induction of chronic atopic dermatitis involved local 9-fold infiltration with 60 μl 1.5% 2,4-dinitrochlorobenzene (DNCB) on each (external and internal) surface of the right ear over 3 weeks (3 times a week). Negative control was the right ear of rats without induction inflammation.
# Treatment of atopic dermatitis with 0.2% or 1.0% urolithin composition and white petrolatum (control) or 1.0% hydrocortisone composition (positive control) was started eight days after sensitization—one day before the fourth application of DNCB. Ointments with appropriate for given group drug added were applied in a total volume of about 20 μl to each ear surface one day before and 6 hours after each DNCB application (for a period of 3 weeks). The negative control group consisted of rats without induced inflammation and treated with white petrolatum in a regimen analogous to the composition of urolithin A or hydrocortisone.
# 2 mL blood samples were drawn into syringes (containing heparin as an anticoagulant) from the heart under general anesthesia (isoflurane) on day 32 of the experiment. The test was conducted using the DIATRON automated hematology analyzer. Peripheral blood analysis included the assessment of morphotic elements in blood: erythrocytes, leukocytes and thrombocytes and determination of the number and percentage of different types of leukocytes—WBC as well as values of erythrocyte indicators: hemoglobin (HGB), hematocrit (HCT), mean corpuscular volume (MCV), mean corpuscular hemoglobin (MCH) and mean corpuscular hemoglobin concentration (MCHC).
# The experimental results obtained were analyzed using the Statistica 7.1 program (StatSoft, Inc., Tulsa, OK, USA) and presented as mean values±SE. Statistical significance was set at P≤0.05. The results with established normal distribution in the D'Agostin and Pearson test were prepared using two- or three-factor analysis of variance (ANOVA). Parametric post-hoc analysis for individual time points was performed using the Bonferroni test.
# [4] = test system: Wistar rats (DNCB-induced atopic dermatitis); test: Ear thickness (edema) in DNCB-induced atopic dermatitis rat model; format: in vivo
# Protocol: It is similar to the indications for use of hydrocortisone, which was used as a positive control in the study. Urolitin A was obtained by synthesis according to Bialonska et al. (Bialonska et al., 2009) or purchased from Sigma-Aldrich. The ointment containing urolithin A was prepared by emulsifying the weighed substance into a solid vehicle (white petrolatum) using an unguator. Wistar rats aged 5-6 weeks (at the start of the experiment) kept under standard conditions with free access to feed and water were used for the tests. The animals were divided into 5 groups, 8 individuals in each group. To prepare 2,4-dinitrochlorobenzene (DNCB) composition inducing inflammation, DNCB was dissolved in 70% ethanol to a final concentration of 1.5% (w/v). Therapeutic composition was an ointment based on white petrolatum with 0.2% or 1.0% urolithin A added. The control ointment was white petrolatum without addition of urolithin A. The induction of chronic atopic dermatitis involved local 9-fold infiltration with 60 μl 1.5% 2,4-dinitrochlorobenzene (DNCB) on each (external and internal) surface of the right ear over 3 weeks (3 times a week). Negative control was the right ear of rats without induction inflammation. Treatment of atopic dermatitis with 0.2% or 1.0% urolithin composition and white petrolatum (control) or 1.0% hydrocortisone composition (positive control) was started eight days after sensitization—one day before the fourth application of DNCB. Ointments with appropriate for given group drug added were applied in a total volume of about 20 μl to each ear surface one day before and 6 hours after each DNCB application (for a period of 3 weeks). The negative control group consisted of rats without induced inflammation and treated with white petrolatum in a regimen analogous to the composition of urolithin A or hydrocortisone. Ear thickness was assessed using an electronic mini caliper the day before inflammation was induced (day 0) and then on days 4 and 8 prior to treatment and on days 4, 8, 12, 16, […] of therapy with urolithin A composition (on days 12, 16, 20, 24, 28 and 32 after inflammation inducing, respectively). The experimental results obtained were analyzed using the Statistica 7.1 program (StatSoft, Inc., Tulsa, OK, USA) and presented as mean values±SE. Statistical significance was set at P≤0.05. The results with established normal distribution in the D'Agostin and Pearson test were prepared using two- or three-factor analysis of variance (ANOVA). Parametric post-hoc analysis for individual time points was performed using the Bonferroni test.
# [5] = test system: TNF-alpha; test: TNF-alpha production by macrophages from human peripheral blood monocytes (ELISA); format: cell-based; settings: 40 μM; LPS 100 ng/mL, 24 h; FIG. 16
# Protocol: Monocytes were isolated from peripheral human blood by a standard method using dextran sedimentation and Ficoll Hypaque gradient centrifugation. After isolation, monocytes were suspended in RPMI 1640 medium supplemented with L-glutamine, HEPES, streptomycin, amphotericin and gentamicin, and 20% autologous serum. Cell culture was carried out under these conditions for 7 days. […] After 24h, TNF-alpha level in the medium was determined using the immunochemical ELISA method (BD biosciences). The obtained results of experiments on in vitro models were analyzed using the Statistica 13 program (StatSoft, Inc., Tulsa, OK, USA) and presented as mean values±SEM. Statistical significance was set at P≤0.05. The results with established normal distribution in the D'Agostin and Pearson test were prepared using analysis of variance (ANOVA). Parametric post-hoc analysis was performed using Dunnett's test.
# [6] = test system: mRNA for TNF-alpha; test: TNF-alpha mRNA expression in THP-1 derived macrophages (real time PCR); format: cell-based, human; settings: 40 μM; LPS stimulation; FIG. 14
# Protocol: as §1, §2, §3, §4
# [7] = test system: ERK1/2; test: ERK1/2 phosphorylation in THP-1 derived macrophages (Western blotting); format: cell-based, human; settings: 40 μM; LPS 10 ng/mL, 35 min; FIG. 15
# Protocol: Monocytes of the THP-1 line were cultured in RPMI 1640 medium supplemented with 10% FBS and 2 mM glutamine. For transformation of monocytes into macrophages, the cells were treated with 12.5 ng/mL PMA (phorbol 12-myristate 13-acetate) for 48 hours, then washed and incubated for 24 hours in a culture medium without PMA. After this time, urolithin A, urolithin B, iso-urolithin A and the corresponding glucuronides (GUA, GUB and GiUA) were added to the cells at a concentration of 40 μM. After 1 hour of incubation with the compounds, the cells were stimulated with LPS from Escherichia coli (10 ng/mL). To assess the level of TNF-alpha production, the cells were incubated for 6 hours, to assess the expression of mRNA for TNF-alpha, the cells were incubated for 24 hours, to assess the effect on ERK1/2 phosphorylation, the cells were incubated for 35 minutes. […] The obtained results of experiments on in vitro models were analyzed using the Statistica 13 program (StatSoft, Inc., Tulsa, OK, USA) and presented as mean values±SEM. Statistical significance was set at P≤0.05. The results with established normal distribution in the D'Agostin and Pearson test were prepared using analysis of variance (ANOVA). Parametric post-hoc analysis was performed using Dunnett's test.
# [8] = day 32, 1% hydrocortisone, urolithin A 0.2 and 1%
compound,measurement,setting,value
"CC(=O)Oc1ccc2c(c1)oc(=O)c1ccccc12 [3-acetyl-urolithin B, reference compound]",TNF-alpha production by THP-1 derived macrophages,[1],did not show any activity
"O=C(O)[C@H]1O[C@@H](Oc2ccc3c(c2)oc(=O)c2ccccc23)[C@H](O)[C@@H](O)[C@@H]1O [GUB, urolitin B 3-O-glucuronide]",TNF-alpha production by THP-1 derived macrophages,[1],did not show any activity
"O=C(O)[C@H]1O[C@@H](Oc2ccc3c(c2)oc(=O)c2ccc(O)cc23)[C@H](O)[C@@H](O)[C@@H]1O [GiUA, Iso-urolithin A 3-O-glucuronide]",TNF-alpha production by THP-1 derived macrophages,[1],did not show any activity
C[C@]12CCC(=O)C=C1CC[C@@H]1[C@@H]2[C@@H](O)C[C@@]2(C)[C@H]1CC[C@]2(O)C(=O)CO [hydrocortisone],Scratching rate (frequency of scratch reflexes),[2],reduction in scratching rate
same,WBC (leukocyte) level,"[3]; 1% composition, day 32, vs petrolatum, hydrocortisone p<0.05, urolithin A p<0.01",significant reduction in WBC
same,Final WBC values compared to negative control (without atopic dermatitis),"[3]; 1% hydrocortisone, urolithin A 0.2 and 1%",remained at a higher level compared to negative control groups
same,"MPV (fl), PDW (fl), PDWcv (%)",[3]; day 32,did not change
same,"RBC, HGB, HCT, MCV",[3]; day 32,no changes
same,Thrombocrit (PCT %),"[3]; day 32, 1% composition, vs negative control, p<0.01",significantly higher values compared to the negative control group
same,Number of thrombocytes (PLT),"[3]; day 32, 1% composition, vs negative control, p<0.05",significantly higher values compared to the negative control group
same,Concentration of hemoglobin in erythrocytes (MCH and MCHC),"[3]; day 32, 1% hydrocortisone (p<0.05), urolithin A 0.2 and 1.0%",decrease in the concentration of hemoglobin in erythrocytes
same,RDW parameter level,"[3]; day 32, 1% hydrocortisone, p<0.05",decrease in the RDW parameter level
same,Monocyte population,[3]; [8],reducing the population of monocytes and neutrophils
same,Neutrophil population,[3]; [8],reducing the population of monocytes and neutrophils
same,Lymphocyte level,"[3]; day 32, 1% hydrocortisone, urolithin A 0.2 and 1%, vs petrolatum",no significant differences
same,"Time profile of anti-edema effect, urolithin A vs. hydrocortisone",[4]; initial period of therapy (up to 12 days),greater therapeutic effectiveness
same,Ear edema (ear thickness) after local therapy,"[4]; topical ointment in white petrolatum, urolithin A 0.2 and 1.0%, hydrocortisone 1%, urolithin A p<0.001, hydrocortisone p<0.01",reduced
O=c1oc2cc(O)ccc2c2cc(O)ccc12 [iso-urolithin A],Inhibition of TNF-alpha production by macrophages from human peripheral blood monocytes,[5],significantly less active
same,TNF-alpha production by THP-1 derived macrophages,[1],stimulated the production of TNF-alpha
same,TNF-alpha mRNA expression in THP-1 derived macrophages,[6],stimulated mRNA expression
same,ERK1/2 kinase phosphorylation in THP-1 derived macrophages,[7],much less active
urolitin A 3-O-glucuronide and urolitin A 8-O-glucuronide [GUA],TNF-alpha production by THP-1 derived macrophages,[1],did not show any activity
